Assay results: paper PMC8268887, “Peptide/β-Peptoid Hybrids with Ultrashort PEG-Like Moieties: Effects on Hydrophobicity, Antibacterial Activity and Hemolytic Properties” (International Journal of Molecular Sciences, 2021)
Values after ≈ are worked out from the molar mass of the structure shown.

What was measured:
[1] = Hydrophobicity by retention in analytical RP-HPLC (% MeCN at peak elution); assay type: physicochemical
Description: For each peptide/β-peptoid hybrid oligomer, the retention time in RP-HPLC was measured on four different columns (details shown in Table 2): Phenomenex Luna C18(2) column (recommended for hydrophobic compounds [49]), Phenomenex Luna Omega Polar C18 column (recommended for both very polar and non-polar compounds [50]) as well as Phenomenex Aeris Peptide XB-C18 [51] and Sigma-Aldrich Supelco Discovery BIO Wide pore C18 [52] columns, which both are recommended for analysis of peptides. The retention times of the compounds on each column were used to calculate the acetonitrile concentration at peak elution (denoted merely as % MeCN; Table 1). As expected, the % MeCN for each compound varied somewhat between the four columns.
Starting materials and solvents were acquired from commercial suppliers (Iris Biotech, Markredwitz, Germany; Fluorochem, Hadfield, UK; and Merck, Darmstadt, Germany) and used without further purification. Water used for analytical and preparative high-performance liquid chromatography (HPLC) was filtered through a 0.22-μm capsule filter using an Evoqua LaboStar Pro TWF UV system. Purity and retention time of each peptidomimetic were determined by analytical HPLC by using a Phenomenex Luna Omega Polar C18 column (150 × 4.6 mm; particle size: 3 μm; pore size: 100 Å) on a Shimadzu Prominence and Shimadzu Nexera system using an aqueous acetonitrile (MeCN, VWR, Søborg, Denmark) gradient with 0.1% trifluoroacetic acid (TFA, Iris Biotech, Markredwitz, Germany) added (eluent A: 5:95 MeCN–H2O + 0.1% TFA, eluent B: 95:5 MeCN–H2O + 0.1% TFA); a flow rate of 0.8 mL/min was used. For elution of peptidomimetics, a linear gradient of 0% to 60% B during 15 min was used with UV detection at λ = 220 nm. […] Retention time of each peptidomimetic was also determined by using a Phenomenex Luna C18(2) column (150 × 4.6 mm; particle size: 3 μm; pore size: 100 Å), a Phenomenex Aeris Peptide XB-C18 column (150 × 4.6 mm; particle size: 3.6 μm; pore size: 100 Å), and a Sigma-Aldrich Supelco Discovery BIO Wide pore C18 column (150 × 4.6 mm, particle size: 3 µm; pore size: 300 Å). For each peptidomimetic, the percentage of MeCN at peak elution was calculated from the retention time by using the following formula:(1) %MeCN =0.95 (0.6Rt/15 min)+0.05 (1−0.6Rt/15 min)

E. coli ATCC 25922 = assay type: cell-based, Escherichia coli; settings: ATCC 25922, 20 h
Description: (§1) MIC values of the peptidomimetics were evaluated by using the modified Hancock lab protocol in non-binding polystyrene microtiter plates. Bacterial suspensions of ~5 × 10^5 CFU/mL in Mueller-Hinton broth (Difco, Sparks, MD, USA) were prepared with Mg^2+ and Ca^2+ concentrations of 4 mg/L each. The compounds were dissolved in H2O and diluted in 0.01% acetic acid, 0.2% BSA (final concentration). Aliquots (11 µL) of test compounds were then transferred to wells containing bacterial suspensions (100 µL). Low-binding sterile tubes and tips (Axygen, Union City, CA, USA) were used for preparation and transfer of the solutions of the compounds. Following incubation for 20 h of the covered plates at 35 °C (±2 °C) with circular shaking at 180 rpm, the MICs were read.

E. coli NMI 3371/16 = assay type: cell-based, Escherichia coli; settings: NMI 3371/16, 20 h
Description: as §1

E. coli NMI 3898/15 = assay type: cell-based, Escherichia coli; settings: NMI 3898/15, 20 h
Description: as §1

E. faecalis ATCC 29212 = assay type: cell-based; settings: ATCC 29212, 20 h
Description: as §1

K. pneumoniae ATCC 13883 = assay type: cell-based; settings: ATCC 13883, 20 h
Description: as §1

[2] = tested on: P. aeruginosa NMI 7197/19; assay type: cell-based, Pseudomonas aeruginosa; settings: NMI 7197/19, 20 h
Description: as §1

P. aeruginosa PAO1 = assay type: cell-based, Pseudomonas aeruginosa; settings: PAO1, 20 h
Description: as §1

A. baumannii ATCC 19606 = assay type: cell-based, Acinetobacter baumannii; settings: ATCC 19606, 20 h
Description: as §1

A. baumannii NMI 3658/17 = assay type: cell-based, Acinetobacter baumannii; settings: NMI 3658/17, 20 h
Description: as §1

S. aureus ATCC 29213 = assay type: cell-based, Staphylococcus aureus; settings: ATCC 29213, 20 h
Description: as §1

[3] = Determination of hemolytic activity; assay type: cell-based; settings: red blood cell suspension in PBS buffer, human red blood cells at 400 µg/mL, 37 °C
Description: The lysis of human red blood cells was measured almost as previously described, albeit with modifications. In brief, a suspension of freshly drawn human red blood cells (hRBCs) was washed three times with PBS buffer and centrifuged two times for 5 min at 2500 rpm. A two-fold serial dilution of compounds in PBS buffer was prepared. Plates (conical-bottomed 96-well plates) with three replicate wells per dilution, each containing 1% red blood cell suspension, were prepared and dosed with the test compound to achieve a final concentration of 400 μg/mL in a total volume of 100 μL. The plates were incubated (37 °C) for 60 min with mild agitation, and then the cells were pelleted by centrifugation at 1500 rpm for 5 min. The supernatants (50 μL) were then transferred to a fresh 96-well plate, and the concentration of hemoglobin was detected by measuring the OD at 405 nm. The OD of cells incubated with 1% SDS defined 100% hemolysis, while the OD of cells incubated with PBS buffer defined 0% hemolysis. The concentration tested was 400 μg/mL (only average values are stated in Table 5). The percent hemolysis was calculated by using the formula:(3) Hemolysis (%)=100×[Asample−Aneg.control/Apos.control−Aneg.control]

[4] = Antiproliferative activity on HepG2 cell line (MTT assay); assay type: cell-based; settings: HepG2 cells; at 1280 µg/mL, value in parenthesis; read-out: HepG2 cell viability at highest concentration tested
Description: (§2) Effect of compounds on mammalian cell viability was estimated on the HepG2 cell line ATCC HB-8065. In brief, HepG2 cells were seeded into flat-bottomed 96-well plates at a concentration of 5000 cells per well. Subsequently, the cells were incubated for 24 h in a humidified incubator (5% CO2, 37 °C). Then, the medium was removed, and the cells were incubated for 48 h in a humidified incubator (5% CO2, 37 °C) with peptidomimetics in serial dilutions. Then, an 3-(4,5-dimethylthiazol-2-yl)-2,5-diphenyltetrazolium bromide (MTT) assay was performed as previously described. In brief, after incubation with the test compounds, the culture medium was removed, and then fresh medium with 0.2 mg/mL MTT was added into each well of the plate. The cells were then incubated (3 h, 37 °C, 5% CO2), followed by removal of the medium with MTT and addition of 200 μL dimethyl sulfoxide at once to each sample. Absorbance of MTT was measured using the spectrophotometer TECAN Infinite M1000 at 540 nm. The relative viability was calculated by using the formula: ODtreated cells × 100/ODcontrol cells. The IC50 values are calculated by using the program Graph Pad Prism® 5.0. For all compounds, the test range was 10–1280 μg/mL.

[5] = tested on: HepG2 cell line ATCC HB-8065; test: as above; assay type: cell-based; settings: inhibition of growth of HepG2 cells, 48 h, MTT; highest concentration tested 1280 µg/mL
Description: as §2

[6] = rat, in vivo; cited from earlier work

| Molecule | % MeCN at Elution, Aeris Peptide ([1]; Phenomenex Aeris Peptide XB-C18 column, gradient 0→60% B during 15 min) | % MeCN at Elution, Luna ([1]; Phenomenex Luna C18(2) column, RP-HPLC gradient 0→60% B during 15 min, relative hydrophobicity) | % MeCN at Elution, Luna Omega ([1]; Phenomenex Luna Omega Polar C18 column, gradient 0→60% B during 15 min) | % MeCN at Elution, Supelco Discovery ([1]; Supelco Discovery BIO Wide pore C18 column, gradient 0→60% B during 15 min) | MIC against E. coli (E. coli ATCC 25922) | MIC, EC (E. coli ATCC 25922) | MIC, E. coli NMI 3371/16 (E. coli NMI 3371/16) | MIC, E. coli NMI 3898/15 (E. coli NMI 3898/15) | MIC, EF (E. faecalis ATCC 29212) | MIC, KP (K. pneumoniae ATCC 13883) | MIC, P. aeruginosa NMI 7197/19 [2] | MIC, PA (P. aeruginosa PAO1) | MIC, AB (A. baumannii ATCC 19606) | MIC, A. baumannii NMI 3658/17 (A. baumannii NMI 3658/17) | MIC, SA (S. aureus ATCC 29213) | hemolysis at 60 min [3] | viability at 48 h [4] | HepG2 IC50 [5] | elimination half-life [6] |
| --- | --- | --- | --- | --- | --- | --- | --- | --- | --- | --- | --- | --- | --- | --- | --- | --- | --- | --- | --- |
| NCCCC[C@H](NC(=O)CCN(Cc1ccc(F)cc1)C(=O)[C@H](CCCCN)NC(=O)CCOCCOCCOCCOCCNC(=O)CCN(Cc1ccc(F)cc1)C(=O)[C@H](CCCCN)NC(=O)CCN(Cc1ccc(F)cc1)C(=O)[C@H](CCCCN)NC(=O)CCOCCOCCOCCOCCNC(=O)CCN(Cc1ccc(F)cc1)C(=O)[C@H](CCCCN)NC(=O)CCN(Cc1ccc(F)cc1)C(=O)[C@@H](N)CCCCN)C(=O)N(CCC(N)=O)Cc1ccc(F)cc1 [Compound 18, H-[X]2-sPEG4-[X]2-sPEG4-[X]2-NH2] | 40.1 % MeCN | 42.1 % MeCN | 42.7 % MeCN | 42.3 % MeCN | 1.2 to 2.4 µM | 4 to 8 µg/mL | 8 to 16 µg/mL | 16 µg/mL (≈ 6.79 µM) | >64 µg/mL | 64 µg/mL (≈ 27.2 µM) | >64 µg/mL | >64 µg/mL | 8 to 16 µg/mL | 16 µg/mL (≈ 6.79 µM) | >64 µg/mL | 8.3% | 41% | ~1280 µg/mL | – |
| VDKPPYLPRPRPIRrPGGr-NH2 [OM19r-8] | – | – | – | – | – | – | – | – | – | – | – | – | – | – | – | – | – | – | 1.6 min |
